For test [1], the target named is T1, 5-hydroxytryptamine receptor 1A (Homo sapiens, UniProt P08908).
T1 sequence (P08908 whole entry): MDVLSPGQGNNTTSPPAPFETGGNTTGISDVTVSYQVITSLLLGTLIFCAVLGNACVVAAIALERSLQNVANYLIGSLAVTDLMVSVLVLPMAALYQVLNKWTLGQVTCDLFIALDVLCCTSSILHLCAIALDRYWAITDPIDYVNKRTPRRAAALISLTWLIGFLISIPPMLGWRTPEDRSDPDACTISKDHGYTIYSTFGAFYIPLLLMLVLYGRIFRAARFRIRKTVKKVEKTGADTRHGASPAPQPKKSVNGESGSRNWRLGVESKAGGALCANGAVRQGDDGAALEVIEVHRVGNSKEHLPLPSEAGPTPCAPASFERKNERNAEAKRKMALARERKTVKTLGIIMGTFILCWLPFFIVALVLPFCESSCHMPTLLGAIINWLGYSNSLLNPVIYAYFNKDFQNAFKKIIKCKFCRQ
In words: The compound was tested for the binding affinity towards human cloned 5-hydroxytryptamine 1A receptor in HEK293 cells, using [3H]8-OH-DPAT as radioligand. The class given is cell-based.

Test [2] deals with 5-hydroxytryptamine receptor 1B (Homo sapiens, UniProt P28222). In words: The compound was tested for the binding affinity towards human cloned 5-hydroxytryptamine 1B receptor in CHO cells, using [3H]5-HT as radioligand. The format is cell-based.
Test [3] has as its target 5-hydroxytryptamine receptor 1D (Homo sapiens, UniProt P28221). The test is described as follows: The compound was tested for the binding affinity towards human cloned 5-hydroxytryptamine 1D receptor in CHO cells, using [3H]5-HT as radioligand. The format is cell-based.
The target of test [4] is 5-hydroxytryptamine receptor 1E (Homo sapiens, UniProt P28566). In words: The compound was tested for the binding affinity towards human cloned 5-hydroxytryptamine 1E receptor in CHO cells, using [3H]5-HT as radioligand. The format is cell-based.
In test [5] the target is 5-hydroxytryptamine receptor 2A (Homo sapiens, UniProt P28223). In words: The compound was tested for the binding affinity towards human cloned 5-hydroxytryptamine 2A receptor in HEK293 cells, using [3H]ketanserin as radioligand. The class given is cell-based.
Test [6] deals with T2, 5-hydroxytryptamine receptor 1F (Homo sapiens, UniProt P30939).
T2 sequence (P30939 whole entry): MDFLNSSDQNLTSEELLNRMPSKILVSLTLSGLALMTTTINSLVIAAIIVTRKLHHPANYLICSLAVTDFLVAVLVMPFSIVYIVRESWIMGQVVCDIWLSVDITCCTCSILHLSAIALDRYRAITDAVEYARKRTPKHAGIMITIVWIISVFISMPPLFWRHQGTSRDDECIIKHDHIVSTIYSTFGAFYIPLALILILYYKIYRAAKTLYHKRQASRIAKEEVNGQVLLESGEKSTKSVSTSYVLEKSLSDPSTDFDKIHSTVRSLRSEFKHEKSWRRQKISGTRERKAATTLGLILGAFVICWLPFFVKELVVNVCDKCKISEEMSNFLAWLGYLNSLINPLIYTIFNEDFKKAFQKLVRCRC
In words: The compound was tested for the binding affinity towards human cloned 5-hydroxytryptamine 1F receptor in CHO cells, using [3H]5-HT as radioligand. The format is cell-based.

Test [7] concerns the target 5-hydroxytryptamine receptor 2B (Homo sapiens, UniProt P41595). In words: The compound was tested for the binding affinity towards human cloned 5-hydroxytryptamine 2B receptor in HEK293 cells, using [3H]5-HT as radioligand. The class given is cell-based.
Test [8] has as its target T3, 5-hydroxytryptamine receptor 2C (Homo sapiens, UniProt P28335).
T3 sequence (P28335 whole entry): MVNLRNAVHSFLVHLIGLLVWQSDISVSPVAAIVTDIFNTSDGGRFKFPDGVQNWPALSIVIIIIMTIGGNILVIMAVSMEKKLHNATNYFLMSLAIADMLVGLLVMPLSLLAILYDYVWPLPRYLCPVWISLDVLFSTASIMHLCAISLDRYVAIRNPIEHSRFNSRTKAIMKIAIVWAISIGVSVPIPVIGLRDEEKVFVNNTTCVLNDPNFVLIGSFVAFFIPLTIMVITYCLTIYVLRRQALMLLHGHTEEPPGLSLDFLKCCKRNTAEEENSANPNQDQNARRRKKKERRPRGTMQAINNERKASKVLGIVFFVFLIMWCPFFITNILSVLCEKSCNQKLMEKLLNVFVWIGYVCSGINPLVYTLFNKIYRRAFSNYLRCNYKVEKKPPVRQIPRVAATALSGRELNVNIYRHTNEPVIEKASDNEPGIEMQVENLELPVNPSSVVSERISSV
The test is described as follows: The compound was tested for the binding affinity towards human cloned 5-hydroxytryptamine 2C receptor in HEK293 cells, using […] as radioligand. The format is cell-based.

In test [9] the target is 5-hydroxytryptamine receptor 4 (Homo sapiens, UniProt Q13639). In words: The compound was tested for the binding affinity towards human cloned 5-hydroxytryptamine 4 receptor in HeLa cells, using [3H]LSD as radioligand. The format is cell-based.
In test [10] the target is 5-hydroxytryptamine receptor 7 (Homo sapiens, UniProt P34969). The test is described as follows: The compound was tested for the binding affinity towards human cloned 5-hydroxytryptamine 7 receptor in HEK293 cells, using [3H]5-CT as radioligand. The class given is cell-based.
In test [11] the target is T4, 5-hydroxytryptamine receptor 6 (Homo sapiens, UniProt P50406). The test is described as follows: The compound was tested for the binding affinity towards human cloned 5-hydroxytryptamine 6 receptor in HeLa cells, using […] as radioligand; n=3. The format is cell-based.
In test [12] the target is T5, Alpha-1B adrenergic receptor (Homo sapiens, UniProt P35368).
T5 sequence (P35368 whole entry): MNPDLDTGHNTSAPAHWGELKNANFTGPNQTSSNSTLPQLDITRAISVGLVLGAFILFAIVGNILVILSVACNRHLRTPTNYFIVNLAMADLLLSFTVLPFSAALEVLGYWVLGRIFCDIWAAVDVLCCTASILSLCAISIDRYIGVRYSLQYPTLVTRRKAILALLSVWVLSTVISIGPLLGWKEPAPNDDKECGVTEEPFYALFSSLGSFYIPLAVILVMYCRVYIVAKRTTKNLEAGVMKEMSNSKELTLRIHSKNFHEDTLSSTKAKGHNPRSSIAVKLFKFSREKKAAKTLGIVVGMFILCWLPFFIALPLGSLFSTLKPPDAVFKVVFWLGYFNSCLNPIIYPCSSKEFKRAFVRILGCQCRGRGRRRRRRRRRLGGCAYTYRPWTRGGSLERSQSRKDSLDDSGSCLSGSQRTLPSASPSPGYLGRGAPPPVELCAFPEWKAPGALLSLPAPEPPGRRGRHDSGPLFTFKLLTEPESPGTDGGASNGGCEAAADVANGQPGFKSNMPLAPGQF
The test is described as follows: The compound was tested for the binding affinity towards Alpha-1B adrenergic receptor.

A further test addresses D(2) dopamine receptor (Homo sapiens, UniProt P14416). In words: The compound was tested for the binding affinity towards human cloned Dopamine receptor D2 in CHO cells, using [125I]iodosulpride as radioligand. The class given is cell-based.
A further test has as its target D(3) dopamine receptor (Homo sapiens, UniProt P35462). The test is described as follows: The compound was tested for the binding affinity towards human cloned Dopamine receptor D3 in CHO cells, using [125I]iodosulpride as radioligand. The format is cell-based.
In test [13] the target is T4, 5-hydroxytryptamine receptor 6. In words: The compound was tested for the binding affinity towards human cloned 5-hydroxytryptamine 6 receptor in HeLa cells, using […] as radioligand; n=9. The class given is cell-based.

The structures appear in SMILES notation.

5-hydroxytryptamine receptor 7, sequence (P34969 whole entry): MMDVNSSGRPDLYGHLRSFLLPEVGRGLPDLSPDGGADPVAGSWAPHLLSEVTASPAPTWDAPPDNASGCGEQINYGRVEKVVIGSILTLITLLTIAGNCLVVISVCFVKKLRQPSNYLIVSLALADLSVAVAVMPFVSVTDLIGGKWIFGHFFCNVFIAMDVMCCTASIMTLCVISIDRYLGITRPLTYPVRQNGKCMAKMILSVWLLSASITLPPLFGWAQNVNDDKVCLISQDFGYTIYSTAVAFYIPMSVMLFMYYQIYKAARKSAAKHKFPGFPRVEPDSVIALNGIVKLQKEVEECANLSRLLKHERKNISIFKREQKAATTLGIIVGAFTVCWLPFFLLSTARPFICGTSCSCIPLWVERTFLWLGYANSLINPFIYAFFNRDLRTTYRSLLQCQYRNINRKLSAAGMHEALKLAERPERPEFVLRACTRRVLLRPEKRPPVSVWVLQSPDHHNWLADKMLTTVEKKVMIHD
D(2) dopamine receptor, sequence (P14416 whole entry): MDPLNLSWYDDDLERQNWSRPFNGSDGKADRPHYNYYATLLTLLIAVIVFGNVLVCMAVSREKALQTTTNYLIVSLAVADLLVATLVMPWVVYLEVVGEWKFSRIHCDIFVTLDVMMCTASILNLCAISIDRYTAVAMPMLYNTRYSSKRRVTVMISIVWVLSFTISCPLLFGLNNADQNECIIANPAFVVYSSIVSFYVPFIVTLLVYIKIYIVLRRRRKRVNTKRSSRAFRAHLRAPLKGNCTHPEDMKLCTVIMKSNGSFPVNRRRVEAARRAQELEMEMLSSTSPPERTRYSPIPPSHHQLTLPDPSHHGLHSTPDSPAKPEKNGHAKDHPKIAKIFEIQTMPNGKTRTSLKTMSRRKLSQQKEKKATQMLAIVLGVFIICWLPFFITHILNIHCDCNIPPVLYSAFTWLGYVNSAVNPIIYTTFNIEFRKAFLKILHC
5-hydroxytryptamine receptor 1D, sequence (P28221 whole entry): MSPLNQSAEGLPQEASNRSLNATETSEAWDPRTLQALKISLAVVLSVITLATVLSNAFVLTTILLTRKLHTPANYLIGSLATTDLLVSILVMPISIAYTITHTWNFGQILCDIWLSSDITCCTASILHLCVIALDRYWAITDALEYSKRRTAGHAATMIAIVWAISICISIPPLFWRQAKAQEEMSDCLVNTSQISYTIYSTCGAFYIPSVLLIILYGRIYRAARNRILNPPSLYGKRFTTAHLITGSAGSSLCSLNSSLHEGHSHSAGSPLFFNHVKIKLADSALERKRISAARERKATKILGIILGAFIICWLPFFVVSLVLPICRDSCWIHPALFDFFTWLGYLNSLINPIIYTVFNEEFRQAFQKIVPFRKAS
5-hydroxytryptamine receptor 1E, sequence (P28566 whole entry): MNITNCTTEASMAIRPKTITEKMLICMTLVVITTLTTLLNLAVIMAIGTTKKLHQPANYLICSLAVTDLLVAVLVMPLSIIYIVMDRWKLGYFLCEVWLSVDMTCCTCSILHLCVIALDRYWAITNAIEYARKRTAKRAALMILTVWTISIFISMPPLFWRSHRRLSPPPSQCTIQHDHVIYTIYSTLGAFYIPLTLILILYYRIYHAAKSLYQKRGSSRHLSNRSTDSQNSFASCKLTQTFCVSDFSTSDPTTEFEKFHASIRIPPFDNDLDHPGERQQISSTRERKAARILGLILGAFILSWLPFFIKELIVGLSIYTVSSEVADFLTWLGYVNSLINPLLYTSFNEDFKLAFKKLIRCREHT
5-hydroxytryptamine receptor 1B, sequence (P28222 whole entry): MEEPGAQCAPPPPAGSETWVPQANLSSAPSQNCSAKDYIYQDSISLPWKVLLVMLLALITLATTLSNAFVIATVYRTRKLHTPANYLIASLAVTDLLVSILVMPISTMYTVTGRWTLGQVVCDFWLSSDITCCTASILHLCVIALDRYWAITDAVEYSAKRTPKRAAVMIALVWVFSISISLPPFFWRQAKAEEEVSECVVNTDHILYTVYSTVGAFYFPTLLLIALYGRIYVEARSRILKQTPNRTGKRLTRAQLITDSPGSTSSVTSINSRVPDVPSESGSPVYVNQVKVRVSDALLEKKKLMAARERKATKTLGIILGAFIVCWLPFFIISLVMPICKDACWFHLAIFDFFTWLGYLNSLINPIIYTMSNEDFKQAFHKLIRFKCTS
5-hydroxytryptamine receptor 2B, sequence (P41595 whole entry): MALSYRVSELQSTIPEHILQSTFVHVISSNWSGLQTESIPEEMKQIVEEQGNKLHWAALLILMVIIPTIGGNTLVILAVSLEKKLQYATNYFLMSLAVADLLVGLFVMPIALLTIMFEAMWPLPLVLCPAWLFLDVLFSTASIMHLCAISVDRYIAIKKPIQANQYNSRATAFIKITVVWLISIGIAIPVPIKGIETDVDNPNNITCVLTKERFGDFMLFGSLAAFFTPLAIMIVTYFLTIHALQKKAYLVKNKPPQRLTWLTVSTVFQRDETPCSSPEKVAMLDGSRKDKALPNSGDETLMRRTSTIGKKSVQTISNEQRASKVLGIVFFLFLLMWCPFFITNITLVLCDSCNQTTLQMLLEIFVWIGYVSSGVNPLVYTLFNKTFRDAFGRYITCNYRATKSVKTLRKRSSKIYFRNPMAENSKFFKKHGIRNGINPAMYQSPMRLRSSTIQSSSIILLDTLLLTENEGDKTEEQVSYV
D(3) dopamine receptor, sequence (P35462 whole entry): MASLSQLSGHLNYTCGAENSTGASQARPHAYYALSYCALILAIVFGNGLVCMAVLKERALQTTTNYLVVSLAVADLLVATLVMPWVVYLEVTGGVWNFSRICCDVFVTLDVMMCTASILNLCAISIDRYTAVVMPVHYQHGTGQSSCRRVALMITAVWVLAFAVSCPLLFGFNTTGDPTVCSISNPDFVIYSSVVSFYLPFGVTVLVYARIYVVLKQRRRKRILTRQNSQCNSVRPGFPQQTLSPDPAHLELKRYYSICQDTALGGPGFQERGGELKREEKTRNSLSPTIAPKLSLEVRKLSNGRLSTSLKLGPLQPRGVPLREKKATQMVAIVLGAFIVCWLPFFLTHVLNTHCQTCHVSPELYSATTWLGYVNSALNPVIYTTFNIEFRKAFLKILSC
T4 sequence (P50406 whole entry): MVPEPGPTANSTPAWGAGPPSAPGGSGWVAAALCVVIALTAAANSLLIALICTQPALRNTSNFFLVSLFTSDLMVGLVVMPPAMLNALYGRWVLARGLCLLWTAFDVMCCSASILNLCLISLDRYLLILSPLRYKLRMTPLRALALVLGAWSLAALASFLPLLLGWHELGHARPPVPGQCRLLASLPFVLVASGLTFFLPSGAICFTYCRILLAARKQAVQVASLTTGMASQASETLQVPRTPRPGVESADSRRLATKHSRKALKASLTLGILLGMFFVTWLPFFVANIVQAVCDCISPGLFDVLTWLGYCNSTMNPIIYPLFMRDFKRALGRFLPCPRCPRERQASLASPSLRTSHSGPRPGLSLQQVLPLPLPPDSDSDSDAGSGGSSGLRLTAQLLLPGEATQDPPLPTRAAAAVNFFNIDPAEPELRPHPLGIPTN
5-hydroxytryptamine receptor 2A, sequence (P28223 whole entry): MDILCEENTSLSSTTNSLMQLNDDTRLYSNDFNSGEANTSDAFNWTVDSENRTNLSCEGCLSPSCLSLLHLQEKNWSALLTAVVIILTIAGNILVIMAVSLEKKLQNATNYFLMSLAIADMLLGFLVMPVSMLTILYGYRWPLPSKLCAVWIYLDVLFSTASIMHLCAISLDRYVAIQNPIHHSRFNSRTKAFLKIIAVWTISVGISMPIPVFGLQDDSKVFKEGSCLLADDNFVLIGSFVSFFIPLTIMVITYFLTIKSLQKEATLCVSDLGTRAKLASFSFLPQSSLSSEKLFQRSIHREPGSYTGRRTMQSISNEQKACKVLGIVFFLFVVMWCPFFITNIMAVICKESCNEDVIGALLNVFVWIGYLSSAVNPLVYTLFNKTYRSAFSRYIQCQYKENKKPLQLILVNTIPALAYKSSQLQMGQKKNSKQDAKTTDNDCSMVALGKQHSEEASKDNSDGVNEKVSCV
5-hydroxytryptamine receptor 4, sequence (Q13639 whole entry): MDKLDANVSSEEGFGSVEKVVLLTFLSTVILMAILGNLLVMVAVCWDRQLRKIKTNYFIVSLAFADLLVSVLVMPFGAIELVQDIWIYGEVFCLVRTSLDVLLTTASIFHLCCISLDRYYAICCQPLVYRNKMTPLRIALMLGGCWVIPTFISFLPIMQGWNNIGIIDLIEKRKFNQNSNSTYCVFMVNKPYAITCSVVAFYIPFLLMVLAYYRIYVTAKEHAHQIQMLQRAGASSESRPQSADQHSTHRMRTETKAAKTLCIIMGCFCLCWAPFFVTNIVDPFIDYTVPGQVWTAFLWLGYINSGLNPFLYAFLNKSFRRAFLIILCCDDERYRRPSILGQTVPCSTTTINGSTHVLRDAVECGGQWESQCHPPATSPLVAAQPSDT

`COc1ccc(NS(=O)(=O)c2sc3ccc(Cl)cc3c2C)cc1N1CCN2CCC[C@@H]2C1`: the inhibition constant Ki is 200 nM in test [1]; 631 nM in [2]; 126 nM in test [3]; 1000 nM in [4]; 1260 nM in [5]; 200 nM in [6]. In addition, the inhibitory constant (Ki) in test [7] was 1260 nM; in test [8], 631 nM; in [9], 1580 nM; in test [10], 631 nM; in [11], 0.794 nM; in [12], 1000 nM. The figures for the Ki on D(2) dopamine receptor and at D(3) dopamine receptor were 2000 nM and 631 nM, respectively.
Take `COc1ccc(NS(=O)(=O)c2sc3ccc(Cl)cc3c2C)cc1N1CCN2CCCCC2C1` (configuration not stated): the inhibition constant (Ki) in [1] is 631 nM; in test [2], 3980 nM; in test [3], 316 nM; in [4] it was more than 1000 nM; in [5], 631 nM; in [6] it was more than 1000 nM. For the same compound, the Ki in test [7] was 2000 nM; in [8] it was more than 3160 nM; in test [9], more than 7940 nM; in [10], more than 7940 nM; in test [11], 5.01 nM; in test [12] it was 2000 nM. In addition, the Ki at D(2) dopamine receptor is 398 nM; at D(3) dopamine receptor, 1000 nM.
As for `COc1ccc(NS(=O)(=O)c2sc3ccc(Cl)cc3c2C)cc1N1CCN2CCC[C@H]2C1`, the inhibition constant Ki is 126 nM in test [1]; 631 nM in [2]; 100 nM in test [3]; 1580 nM in test [4]; 251 nM in test [5]; 316 nM in test [6]. The inhibition constant Ki in test [7] is 1260 nM; in [8] it was 398 nM; in [9], 5010 nM; in test [10], 1000 nM; in [13], 0.794 nM; in test [12], 1580 nM. Also, the Ki on D(2) dopamine receptor was 1580 nM; at D(3) dopamine receptor, 316 nM.

Source of the values: ChEMBL document CHEMBL1135108, “Bicyclic piperazinylbenzenesulphonamides are potent and selective 5-HT6 receptor antagonists” (Bioorg Med Chem Lett, 2002).
